Legend:
[1] = system: Transgenic T2 Arabidopsis plants harboring PPO inhibitor tolerance trait; assay: Lab based germination assay in 48-well plates (Table i); assay type: in vivo, Arabidopsis thaliana; conditions: construct AMATU_PPO2_TP_hemG (Escherichia coli); in comparison to wild type plants
[2] = system: Transgenic T2 Arabidopsis plants and ARBTH WT MC24 non-transgenic; assay: Greenhouse post spray test, injury 14 DAT (Tables ii, iii); assay type: in vivo, Arabidopsis thaliana; conditions: Arabidopsis thaliana, 336 h, Table ii; for pest or weed control at 50 g/ha: 50 g ai/ha; for pest or weed control at 100 g/ha: 100 g ai/ha; for pest or weed control at 200 g/ha: 200 g ai/ha;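 for all read-outs here: value is percent injury to the sprayed plants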
[3] = biological target: Wild Type PPO Enzyme (Amaranthus PPO2, SEQ ID NO: 1) (Amaranthus tuberculatus, UniProt Q0NZW9); assay: PPO enzyme assay (recombinant), wild type; assay type: biochemical
[4] = system: Variant PPO Enzyme R128A, F420V (Amaranthus PPO2); assay: biochemical; assay type: biochemical; conditions: variant R128A, F420V vs wild type
[5] = system: Variant PPO Enzyme F420M (Amaranthus PPO2); assay: biochemical; assay type: biochemical; conditions: variant F420M vs wild type
[6] = system: Variant PPO Enzyme L397E, F420M (Amaranthus PPO2); assay type: biochemical; conditions: variant L397E, F420M vs wild type
[7] = system: Variant PPO Enzyme R128A, F420M (Amaranthus PPO2); assay type: biochemical; conditions: variant R128A, F420M vs wild type
[8] = AMATU_PPO2_WT event Q, 1 g ai/ha
[9] = AMATU_PPO2_WT event Q, 5 g ai/ha
[10] = AMATU_PPO2_WT event Q, 10 g ai/ha
[11] = AMATU_PPO2_WT event Q, 30 g ai/ha
[12] = ARBTH WT MC24 non-transgenic, 1 g ai/ha + 1% MSO
[13] = ARBTH WT MC24 non-transgenic, 5 g ai/ha + 1% MSO
[14] = ARBTH WT MC24 non-transgenic, 10 g ai/ha + 1% MSO
[15] = ARBTH WT MC24 non-transgenic, 30 g ai/ha + 1% MSO
[16] = ARBTH WT MC24 non-transgenic, 80 g ai/ha + 1% MSO
[17] = ARBTH_PPO1_S305L_Y426M event O, 5 g ai/ha
[18] = ARBTH_PPO1_S305L_Y426M event O, 10 g ai/ha
[19] = ARBTH_PPO1_S305L_Y426M event O, 30 g ai/ha
[20] = ARBTH_PPO1_S305L_Y426M event O, 80 g ai/ha
[21] = ARBTH_PPO1_WT event Q, 1 g ai/ha
[22] = ARBTH_PPO1_WT event Q, 5 g ai/ha
[23] = ARBTH_PPO1_WT event Q, 10 g ai/ha
[24] = ARBTH_PPO1_WT event Q, 30 g ai/ha

Wild Type PPO Enzyme (Amaranthus PPO2, SEQ ID NO: 1), sequence (Q0NZW9 1-534): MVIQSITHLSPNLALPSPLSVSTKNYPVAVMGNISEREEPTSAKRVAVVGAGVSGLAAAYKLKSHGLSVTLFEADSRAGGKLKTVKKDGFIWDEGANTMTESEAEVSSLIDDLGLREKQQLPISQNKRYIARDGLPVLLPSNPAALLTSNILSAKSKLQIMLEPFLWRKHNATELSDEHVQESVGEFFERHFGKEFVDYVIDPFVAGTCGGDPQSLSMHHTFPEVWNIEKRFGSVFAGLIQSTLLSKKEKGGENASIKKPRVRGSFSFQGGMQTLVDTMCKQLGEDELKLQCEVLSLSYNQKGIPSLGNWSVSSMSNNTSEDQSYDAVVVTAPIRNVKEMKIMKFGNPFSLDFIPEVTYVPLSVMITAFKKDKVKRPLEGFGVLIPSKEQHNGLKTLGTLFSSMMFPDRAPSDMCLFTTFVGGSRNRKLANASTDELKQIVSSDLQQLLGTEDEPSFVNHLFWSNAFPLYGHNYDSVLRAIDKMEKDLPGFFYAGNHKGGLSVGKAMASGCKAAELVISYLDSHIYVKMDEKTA

SMILES | Tolerance Factor [1] | pest or weed control at 1 g/ha [2, 8] | pest or weed control at 5 g/ha [2, 9] | pest or weed control at 10 g/ha [2, 10] | pest or weed control at 30 g/ha [2, 11] | pest or weed control at 1 g/ha [2, 12] | pest or weed control at 5 g/ha [2, 13] | pest or weed control at 10 g/ha [2, 14] | pest or weed control at 30 g/ha [2, 15] | pest or weed control at 80 g/ha [2, 16] | pest or weed control at 5 g/ha [2, 17] | pest or weed control at 10 g/ha [2, 18] | pest or weed control at 30 g/ha [2, 19] | pest or weed control at 80 g/ha [2, 20] | pest or weed control at 1 g/ha [2, 21] | pest or weed control at 5 g/ha [2, 22] | pest or weed control at 10 g/ha [2, 23] | pest or weed control at 30 g/ha [2, 24] | IC50 [3] | also measured
Cn1c(C(F)(F)F)cc(=O)n(-c2nc(Oc3ccccc3OCC(=O)O)c(Cl)cc2F)c1=O [Uracilpyridine 5, 2-[2-[[3-chloro-5-fluoro-6-[3-methyl-2,6-dioxo-4-(trifluoromethyl)pyrimidin-1-yl]-2-pyridyl]oxy]phenoxy]acetic acid] | 1400 | 28% | 90% | 100% | 100% | 100% | 100% | 100% | 100% | 100% | 0% | 0% | 68% | 73% | 45% | 90% | 99% | 100% |  | 
CCOC(=O)COc1ccccc1Oc1nc(-n2c(=O)cc(C(F)(F)F)n(C)c2=O)c(F)cc1F [Uracilpyridine 8, ethyl 2-[2-[[3,5-difluoro-6-[3-methyl-2,6-dioxo-4-(trifluoromethyl)pyrimidin-1-yl]-2-pyridyl]oxy]phenoxy]acetate] | 8202 | 10% | 55% | 100% | 100% | 88% | 100% | 100% | 100% | 100% | 0% | 0% | 0% | 0% | 10% | 30% | 55% | 100% | 0.496 nM | Tolerance Factor (R/S) [4]: 4531; Tolerance Factor (R/S) [5]: 139
Cn1c(C(F)(F)F)cc(=O)n(-c2nc(Oc3ccccc3OCC(=O)O)c(F)cc2F)c1=O [Uracilpyridine 9, 2-[2-[[3,5-difluoro-6-[3-methyl-2,6-dioxo-4-(trifluoromethyl)pyrimidin-1-yl]-2-pyridyl]oxy]phenoxy]acetic acid] | 1600 | 38% | 68% | 100% | 100% | 85% | 100% | 100% | 100% | 100% | 0% | 0% | 0% | 0% | 10% | 50% | 70% | 98% |  | 
Cn1c(C(F)(F)F)cc(=O)n(-c2nc(Oc3ccccc3OCC(=O)NS(C)(=O)=O)c(Cl)cc2F)c1=O [Uracilpyridine 10, 2-[2-[[3-chloro-5-fluoro-6-[3-methyl-2,6-dioxo-4-(trifluoromethyl)pyrimidin-1-yl]-2-pyridyl]oxy]phenoxy]-N-methylsulfonyl-acetamide] |  | 58% | 100% | 100% | 100% | 100% | 100% | 100% | 100% | 100% | 10% | 8% | 99% | 99% | 50% | 98% | 100% | 100% | 0.212 nM | Tolerance Factor (R/S) [6]: 30714; Tolerance Factor (R/S) [7]: 7879; pest or weed control at 50 g/ha ([2]; ALOMY_PPO2_R137L_F438V event F): 0%; pest or weed control at 100 g/ha ([2]; ALOMY_PPO2_R137L_F438V event F): 8%; pest or weed control at 200 g/ha ([2]; ALOMY_PPO2_R137L_F438V event F): 10%; pest or weed control at 50 g/ha ([2]; ALOMY_PPO2_R137L_F438V event G): 0%; pest or weed control at 100 g/ha ([2]; ALOMY_PPO2_R137L_F438V event G): 0%; pest or weed control at 200 g/ha ([2]; ALOMY_PPO2_R137L_F438V event G): 5%; pest or weed control at 50 g/ha ([2]; AMATU_PPO2_L397E_F420V event D): 0%; pest or weed control at 100 g/ha ([2]; AMATU_PPO2_L397E_F420V event D): 5%; pest or weed control at 200 g/ha ([2]; AMATU_PPO2_L397E_F420V event D): 13%; pest or weed control at 50 g/ha ([2]; AMATU_PPO2_L397E_F420V event L): 8%; pest or weed control at 100 g/ha ([2]; AMATU_PPO2_L397E_F420V event L): 53%; pest or weed control at 200 g/ha ([2]; AMATU_PPO2_L397E_F420V event L): 20%; pest or weed control at 50 g/ha ([2]; AMATU_PPO2_R128A_F420V event A): 38%; pest or weed control at 100 g/ha ([2]; AMATU_PPO2_R128A_F420V event A): 53%; pest or weed control at 200 g/ha ([2]; AMATU_PPO2_R128A_F420V event A): 68%; pest or weed control at 50 g/ha ([2]; AMATU_PPO2_R128A_F420V event D): 30%; pest or weed control at 100 g/ha ([2]; AMATU_PPO2_R128A_F420V event D): 78%; pest or weed control at 200 g/ha ([2]; AMATU_PPO2_R128A_F420V event D): 88%
